According to ChEMBL document CHEMBL5614417, “Discovery of AMPs from random peptides via deep learning-based model and biological activity validation” (Eur J Med Chem, 2024):
Converted amounts (≈) assume the structure as drawn. The source made the active and inactive calls. The calls are words filed in the database; no cut-off is given here. Where a SMILES comes first, the peptide text is derived from it.

How the values were obtained:
Staphylococcus aureus [1] = experiment: Inhibition of biofilm formation in Staphylococcus aureus at 4 times MIC incubated for 24 hrs by crystal violet staining based assay; format: functional
Cell membrane [2] = experiment: Disruption of outer membrane integrity in Escherichia coli assessed as increase in fluorescence intensity by measuring NPN uptake measured every min for 15 mins by fluorescence based analysis; format: cell membranes
Acinetobacter baumannii [3] = experiment: Antibacterial activity against multidrug resistant Acinetobacter baumannii 3 incubated for 18 hrs by visual inspection method; format: functional
Erythrocyte [4] = experiment: Hemolytic activity in rat erythrocytes at 500 to 1000 ug/ml incubated for 1 hr; format: toxicity, cell-based; conditions: dose 500-1000 µg/ml
Cell membrane [5] = experiment: Induction of cell membrane damage in Escherichia coli assessed as change in morphology by measuring deformed membrane at 4 times MIC incubated for 5 hrs by SEM analysis; format: cell membranes
Erythrocyte [6] = experiment: Hemolytic activity in rat erythrocytes incubated for 1 hr; format: toxicity, cell-based
Staphylococcus aureus [7] = experiment: Inhibition of biofilm formation in Staphylococcus aureus at 2 times MIC incubated for 24 hrs by crystal violet staining based assay; format: functional
Cell membrane [8] = experiment: Induction of cell membrane damage in Escherichia coli assessed as change in morphology by measuring numerous blebs covered membrane at 4 times MIC incubated for 5 hrs by SEM analysis; format: cell membranes
Escherichia coli [9] = experiment: Antibacterial activity against Escherichia coli ATCC 25922 incubated for 18 hrs in presence of 50 mM NaCl by visual inspection method; format: functional
Staphylococcus aureus [10] = experiment: Bactericidal activity against Staphylococcus aureus at 2 times MIC measured after 6 hrs by time kill kinetic assay; format: functional, organism-based
Cell membrane [11] = experiment: Induction of inner membrane permeability in Escherichia coli ML-35 at 1 to 4 times MIC by ONPG dye based assay; format: cell membranes; conditions: TDE = time-dependent effect
Staphylococcus aureus [12] = experiment: Bactericidal activity against Staphylococcus aureus at 4 times MIC measured after 2 hrs by time kill kinetic assay; format: functional
Escherichia coli [13] = experiment: Bactericidal activity against Escherichia coli at 4 times MIC measured after 2 hrs by time kill kinetic assay; format: functional
Staphylococcus aureus [14] = experiment: Antibacterial activity against Staphylococcus aureus ATCC 25923 incubated for 18 hrs by visual inspection method; format: functional
Staphylococcus aureus [15] = experiment: Inhibition of biofilm formation in Staphylococcus aureus at MIC incubated for 24 hrs by crystal violet staining based assay; format: functional
Cell membrane [16] = experiment: Induction of cell membrane damage in Staphylococcus aureus assessed as change in morphology by measuring deformed membrane at 4 times MIC incubated for 5 hrs by SEM analysis; format: cell membranes
Acinetobacter baumannii [17] = experiment: Antibacterial activity against multidrug resistant Acinetobacter baumannii 4 incubated for 18 hrs by visual inspection method; format: functional
Escherichia coli [18] = experiment: Antibacterial activity against ESBL Escherichia coli 5 incubated for 18 hrs by visual inspection method; format: functional
[19] = Toxicity in BALB/c mouse assessed as spleen damage at 400 mg/kg, ip measured after 48 hrs by H and E staining based assay; format: organism-based; conditions: in vivo
Escherichia coli [20] = experiment: Antibacterial activity against Escherichia coli ATCC 25922 incubated for 18 hrs in presence of 150 mM NaCl by visual inspection method; format: functional
Escherichia coli [21] = experiment: Bactericidal activity against Escherichia coli at 2 times MIC measured after 3 hrs by time kill kinetic assay; format: functional, organism-based
Acinetobacter baumannii [22] = experiment: Antibacterial activity against Acinetobacter baumannii ATCC 19606 incubated for 18 hrs by visual inspection method; format: functional
[23] = Toxicity in BALB/c mouse assessed as edema in hepatocytes at 200 to 400 mg/kg, ip measured after 48 hrs by H and E staining based assay; format: organism-based; conditions: in vivo, dose 200-400 mg/kg
Staphylococcus aureus [24] = experiment: Antibacterial activity against methicillin resistant Staphylococcus aureus 3 incubated for 18 hrs by visual inspection method; format: functional
[25] = Toxicity in BALB/c mouse assessed as kidney damage at 400 mg/kg, ip measured after 48 hrs by H and E staining based assay; format: organism-based; conditions: in vivo
Staphylococcus aureus [26] = experiment: Antibacterial activity against methicillin resistant Staphylococcus aureus 2 incubated for 18 hrs by visual inspection method; format: functional
Escherichia coli [27] = experiment: Antibacterial activity against Escherichia coli ATCC 25922 incubated for 18 hrs by visual inspection method; format: functional
[28] = Stability in Sprague-Dawley rat serum assessed as retention rate at 62.5 ug/ml measured after 2 hrs by RP-HPLC method; format: ADME, cell-free; conditions: at 62.5 µg/mL, read-out: Stability
Cell membrane [29] = experiment: Induction of cell membrane damage in Staphylococcus aureus assessed as decrease in red/green fluorescence ratio by DiOC2(3) fluorescent probe based assay; format: cell membranes
Cell membrane [30] = experiment: Induction of cell membrane damage in Escherichia coli assessed as change in morphology by measuring roughened membrane at 4 times MIC incubated for 5 hrs by SEM analysis; format: cell membranes
Escherichia coli [31] = experiment: Antibacterial activity against ESBL Escherichia coli 3 incubated for 18 hrs by visual inspection method; format: functional
[32] = Hemolytic activity in rat erythrocytes at 1000 ug/ml incubated for 1 hr; format: toxicity, cell-based, Erythrocyte; conditions: at 1000 µg/mL, read-out: Activity
Bacillus subtilis = experiment: Antibacterial activity against Bacillus subtilis ATCC 23857 incubated for 18 hrs by visual inspection method; format: functional
Staphylococcus aureus [33] = experiment: Induction of resistance development against Staphylococcus aureus assessed as fold increase in MIC after 21 passages; format: functional
Klebsiella pneumoniae = experiment: Antibacterial activity against Klebsiella pneumoniae ATCC 700603 incubated for 18 hrs by visual inspection method; format: functional
Cell membrane [34] = experiment: Induction of cell membrane damage in Staphylococcus aureus at 4 times MIC incubated for 30 mins by PI staining based confocal laser scanning microscopic analysis; format: cell membranes
Escherichia coli [35] = experiment: Antibacterial activity against ESBL Escherichia coli 1 incubated for 18 hrs by visual inspection method; format: functional
[36] = Toxicity in BALB/c mouse assessed as lung damage at 400 mg/kg, ip measured after 48 hrs by H and E staining based assay; format: organism-based; conditions: in vivo
Escherichia coli [37] = experiment: Antibacterial activity against ESBL Escherichia coli 4 incubated for 18 hrs by visual inspection method; format: functional
Staphylococcus aureus [38] = experiment: Antibacterial activity against Staphylococcus aureus infected in BALB/c mouse at 10 to 20 mg/kg administered every 4 hrs for 3 doses and measured after 4 hrs post last dose; format: functional, organism-based; conditions: dose 10-20 mg/kg, time 16.0 hrs
Escherichia coli [39] = experiment: Antibacterial activity against Escherichia coli ATCC 25922 incubated for 18 hrs in presence of 100 mM NaCl by visual inspection method; format: functional
Staphylococcus aureus [40] = experiment: Antibacterial activity against Staphylococcus aureus ATCC 25923 incubated for 18 hrs in presence of 100 mM NaCl by visual inspection method; format: functional
Staphylococcus aureus [41] = experiment: Inhibition of biofilm formation in Staphylococcus aureus at 8 times MIC incubated for 24 hrs by crystal violet staining based assay; format: functional
Cell membrane [42] = experiment: Induction of inner membrane permeability in Escherichia coli ML-35 measured every 5 mins for 90 mins by ONPG dye based assay; format: cell membranes
Cell membrane [43] = experiment: Induction of cell membrane damage in Staphylococcus aureus assessed as decrease in red/green fluorescence ratio at 2 times MIC by DiOC2(3) fluorescent probe based assay; format: cell membranes
[44] = tested on: Staphylococcus epidermidis; experiment: Antibacterial activity against Staphylococcus epidermidis ATCC 12228 incubated for 18 hrs by visual inspection method; format: functional
Cell membrane [45] = experiment: Induction of cell membrane damage in Staphylococcus aureus assessed as change in morphology by measuring roughened membrane at 4 times MIC incubated for 5 hrs by SEM analysis; format: cell membranes

Structure (SMILES): CC[C@H](C)[C@H](NC(=O)[C@H](Cc1ccccc1)NC(=O)[C@@H](N)Cc1c[nH]c2ccccc12)C(=O)N[C@H](C(=O)N[C@@H](Cc1c[nH]c2ccccc12)C(=O)N[C@@H](Cc1c[nH]cn1)C(=O)N[C@@H](Cc1c[nH]c2ccccc12)C(=O)N[C@@H](CCCNC(=N)N)C(=O)N[C@@H](CCCCN)C(=O)N[C@H](C(=O)N1CCC[C@H]1C(=O)N1CCC[C@H]1C(=O)N[C@@H](CCCCN)C(N)=O)[C@@H](C)CC)[C@@H](C)CC (H-WFIIWHWRKIPPK-NH2)
- inhibition (INH) (Staphylococcus aureus [1]): 32.46%
- Activity (Cell membrane [2]): Dose-Dependent Effect
- MIC (Acinetobacter baumannii [3]): 7.5 µg/mL (≈ 4.15 µM)
- Activity (Erythrocyte [4]): Toxic
- Activity (Cell membrane [5]): Active
- HC5 (Erythrocyte [6]): 416.15 µg/mL
- inhibition (INH) (Staphylococcus aureus [7]): 20.76%
- Activity (Cell membrane [8]): Active
- MIC (Escherichia coli [9]): 15 µg/mL
- Activity (Staphylococcus aureus [10]): Active
- Activity (Cell membrane [11]): Tde
- Activity (Staphylococcus aureus [12]): 100%
- Activity (Escherichia coli [13]): 100%
- MIC (Staphylococcus aureus [14]): 7.5 µg/mL (≈ 4.15 µM)
- inhibition (INH) (Staphylococcus aureus [15]): 12.29%
- Activity (Cell membrane [16]): Active
- MIC (Acinetobacter baumannii [17]): 7.5 µg/mL (≈ 4.15 µM)
- MIC (Escherichia coli [18]): 15 µg/mL (≈ 8.3 µM)
- Activity [19]: Non-Toxic
- MIC (Escherichia coli [20]): 15 µg/mL
- Activity (Escherichia coli [21]): Active
- MIC (Acinetobacter baumannii [22]): 7.5 µg/mL (≈ 4.15 µM)
- Activity [23]: Toxic
- MIC (Staphylococcus aureus [24]): 7.5 µg/mL (≈ 4.15 µM)
- Activity [25]: Non-Toxic
- MIC (Staphylococcus aureus [26]): 7.5 µg/mL (≈ 4.15 µM)
- MIC (Escherichia coli [27]): 15 µg/mL (≈ 8.3 µM)
- remaining at 2 h, 62.5 ug/ml [28]: 41.2%
- Activity (Cell membrane [29]): Dose-Dependent Effect
- Activity (Cell membrane [30]): Active
- MIC (Escherichia coli [31]): 15 µg/mL (≈ 8.3 µM)
- hemolysis at 1 h, 1000 ug/ml [32]: 10.8%
- MIC (Bacillus subtilis): 3.75 µg/mL (≈ 2.08 µM)
- fold change (FC) (Staphylococcus aureus [33]): 2
- MIC (Klebsiella pneumoniae): 30 µg/mL (≈ 16.6 µM)
- Activity (Cell membrane [34]): Active
- MIC (Escherichia coli [35]): 15 µg/mL (≈ 8.3 µM)
- Activity [36]: Non-Toxic
- MIC (Escherichia coli [37]): 15 µg/mL (≈ 8.3 µM)
- Activity (Staphylococcus aureus [38]): Active
- MIC (Escherichia coli [39]): 15 µg/mL
- MIC (Staphylococcus aureus [40]): 7.5 µg/mL
- inhibition (INH) (Staphylococcus aureus [41]): >90%
- Activity (Cell membrane [42]): Dose-Dependent Effect
- Activity (Cell membrane [43]): Active
- MIC [44]: 3.75 µg/mL (≈ 2.08 µM)
- Activity (Cell membrane [45]): Active
